Like-named read-outs stand apart in the source and are kept apart here.
Tests used:
[1] = Compound 2 solubility in solvents and buffers (saturated, 24 h shaking, HPLC); assay type: physicochemical; conditions: 50 mM phosphate buffer, aqueous buffer, thermodynamic from solid; pH 3 buffer (phosphate, 50 mM)
[2] = Bulk density, tap density, powder flow, particle size and milling feasibility of Compound 2; assay type: physicochemical; conditions: for Tap Density: Autotap 100 cycles
Method: Compound 2 particle size distribution was determined by sieve screen analysis. A sample of Compound 2 was passed through a series of sieves, which included a 53, 106, 250, 500, 710, and 1000 μm mesh screen. Each screen was weighed before and after the sieving occurred to determine the amount of compound at each particle size.
The powder flow was determined on a FlowDex apparatus.
Bulk density was determined by filling a tared 100 mL graduated cylinder with Compound 2. The volume and weight of Compound 2 added was recorded and used to calculate its bulk density. Tap density was then determined by taking the same graduated cylinder filled with Compound 2 and placing it on an Autotap set for 100 cycles. The new powder volume was recorded and used to calculate the tap density.
24.73 mg of Compound 2 was weighed directly into a tared 25 mL volumetric flask. The flask was diluted to volume with ACN and inverted to mix. A sample was taken to determine the % purity (% area) of the drug before milling took place. Milling was performed by taking 17.92 g of Compound 2 and passing this material it through a conical mill with an 1143 μm screen. 14.33 g of Compound 2 was recovered and re-analyzed for particle size distribution, bulk density, and tap density. 24.93 mg of milled Compound 2 was weighed directly into a tared 25 mL volumetric flask. The flask was diluted to volume with ACN and inverted to mix. This sample was taken to determine the % purity (% area) after Compound 2 had been milled.
After Compound 2 had been milled it was blended with 2.5% w/w of colloidal silicon dioxide, Cab-O-Sil®, on a T2 Turbula blender for 2 minutes. The blended powder was collected and its flow properties were analyzed on a FlowDex apparatus.

[3] = dog, in vivo, po, 10 mg/kg
Method: (§1) The study was designed to compare the PK profiles of the following four forms of Compound 1 administered as single oral capsules in fasted state. […] There was a washout period of 4 days between dosing. The blood samples were collected from each animal at predetermined times on the study Days 1, 4, 8 and 11. The plasma was analyzed for Compound 1 by a validated HPLC-MS/MS assay.
(§2) Descriptive PK parameters were determined by standard model independent methods (Gibaldi and Perrier, 1982) based on the individual plasma concentration-time data. Plasma concentrations were rounded to 3 significant figures. Plasma samples with concentrations below the quantifiable assay limit (BQL<2.00 ng/mL) were assigned values of zero for mean calculations. For PK calculations, BQL was set to zero from the pre-dose time up to the time of the first quantifiable concentration and thereafter was set as missing. Nominal time points were used for all calculations. • Cmax is the observed maximum plasma concentration after dosing. • Tmax is the time to reach Cmax. • T1/2 is apparent half-life calculated by ln(2)/λ where λ is the rate constant fix the log-linear portion of the terminal phase. A minimum of three values in the post-distribution phase of the plasma concentration-time curve is required for calculation of X. • AUC(0-T) is the area under the plasma concentration-time curve from time zero to the time of the last measurable plasma concentration determined using the linear trapezoidal rule. • AUC(0-inf) is the area under the plasma concentration-time curve from time zero to infinity. It is calculated by summing AUC(0-T) and the extrapolated area from the T to infinity.
(§3) PK analyses were performed by noncompartmental analysis using model 200 in WinNonlin Professional 6.1 (Pharsight Corp., Mountain View, Calif.).

[4] = Dissolution comparison of solid sodium salt forms in capsules; assay type: physicochemical
Method: Dissolution of three forms of solid sodium salt were analyzed, a monosodium trihydrate (Compound 6), a monosodium salt dihydrate (Compound 7) and amorphous Compound 2.
The crystalline material was made by exposing amorphous Compound 2 to ambient temperature/75% RH for 24 hrs. These conditions were created using a saturated sodium chloride solution sealed in a desiccant chamber. Once the crystalline material had been created it was collected and stored at 2-8° C. until dissolution testing took place. Two samples for dissolution were prepared by weighing 25 mg±1 mg into size 00 white opaque gelatin capsules.
Crystalline Compound 7 dihydrate was made by placing a sample of the iso-propanol solvate of Compound 2 at ambient temperature and humidity conditions for 2 weeks. The iso-propanol solvate of Compound 2 readily converts to the dihydrate. Once Compound 7 had been prepared, it was collected and stored at 2-8° C. until dissolution testing was conducted. Two samples for dissolution were prepared by weighing 25 mg±1 mg into size 00 white opaque gelatin capsules.
Two samples for dissolution were prepared by weighing 25 mg±1 mg of amorphous Compound 2 into size 00 white opaque gelatin capsules.
The dissolution materials and parameters are set out in Table 33. At each pull time ˜6 mL of media was removed from each vessel and filtered through a 0.45 μm nylon filter. The first 5 mL of solution was discarded and the final 1 mL was collected in a UPLC vial for analysis.

[5] = Compound 2 solubility in solvents and buffers (saturated, 24 h shaking, HPLC); assay type: physicochemical; conditions: for solubility at 24 h: thermodynamic from solid
Method: Solubility of Compound 2 in a solvent, selected from water, methanol, acetonitrile (ACN) and iso-propanol and in 50 mM phosphate buffer at pH 1, 2, 7 and 8, 50 mM citrate buffer at pH 3, 4, 5 and 6 and in 50 mM borate buffer at pH 9 was assessed. Compound 2 was added to 10 mL of the solvent or buffer until the solution was visibly saturated and remained cloudy upon vortex mixing. Each sample was placed on a reciprocal shaker at room temperature for 24 hours then filtered through a 0.45 μm nylon filter to remove excess suspended compound. The samples were then diluted where required in accordance with Table 24, and analyzed by HPLC. The results were compared with a standard curve of known concentrations in ACN.

[6] = Pharmacokinetics in male beagle dogs after a single oral dose (plasma Compound 1); conditions: dog, 10 mg/kg
Method: as §1, §2, §3

[7] = Table 42 summary, mean, dogs, single oral 10 mg/kg, plasma Compound 1
[8] = dog 301, single oral 10 mg/kg dose, plasma Compound 1
[9] = dog 302, single oral 10 mg/kg dose, plasma Compound 1
[10] = dog 303, single oral 10 mg/kg dose, plasma Compound 1
[11] = dog 304, single oral 10 mg/kg dose, plasma Compound 1
[12] = mean of dogs, single oral 10 mg/kg dose, plasma Compound 1

COc1ccc2c(c1OCc1ccccc1)C[C@@H](C(=O)[O-])N(C(=O)C(c1ccccc1)c1ccccc1)C2.[Na+] [Compound 2, sodium salt of (S)-2-(diphenylacetyl)-1,2,3,4-tetrahydro-6-methoxy-5-(phenylmethoxy)-3-isoquinoline carboxylic acid]
solubility at 24 h [1]: < 1 µg/mL
average particle size ([2]; after milling): ~560 μm
% Purity with milling ([2]; before vs after milling): % Purity of Compound 2 sample did not change with milling.
powder flow (FlowDex) ([2]; bulk unmilled): unable to pass through the largest available, 34 mm, orifice
average particle size ([2]; bulk, before milling): ~775 μm
Bulk Density ([2]; milled (conical mill, 1143 μm screen)): 0.073 g/mL
Tap Density ([2]; milled): 0.098 g/mL
powder flow (FlowDex) ([2]; milled, blended with 2.5% w/w colloidal silicon dioxide): passed through a 34 mm orifice but failed to pass through a 32 mm orifice
Bulk Density ([2]; unmilled): 0.089 g/mL
Tap Density ([2]; unmilled): 0.114 g/mL
Plasma concentration of Compound 1, 0.25 h [3]: BQL
Plasma concentration of Compound 1, 0.5 h [3]: BQL
Plasma concentration of Compound 1, 24 h [3]: BQL
Plasma concentration of Compound 1, Predose [3]: BQL
Plasma concentration of Compound 1, Predose ([3]; male, beagle): 0.00 ng/mL
% Dissolution ([4]; 15 mins, 25 mg in gelatin capsule, pH 6.8 phosphate buffer 900 mL, 37° C., 50 RPM): 77.8%
% Dissolution ([4]; 30 mins, pH 6.8 phosphate buffer, 50 RPM): 83.6%
% Dissolution ([4]; 45 mins, pH 6.8 phosphate buffer, 50 RPM): 86.3%
% Dissolution ([4]; 60 mins, pH 6.8 phosphate buffer, 50 RPM): 88.8%
% Dissolution ([4]; 120 mins, pH 6.8 phosphate buffer, 150 RPM for 2nd hour): 92.9%
dissolution rate (comparison of forms) ([4]; pH 6.8 phosphate buffer, capsules): dissolved considerably faster
solubility at 24 h ([5]; 50 mM borate buffer, aqueous buffer, pH 9 buffer (borate, 50 mM)): 5300 µg/mL
solubility at 24 h ([5]; 50 mM citrate buffer, aqueous buffer, pH 4 buffer (citrate, 50 mM)): < 1 µg/mL
solubility at 24 h ([5]; 50 mM citrate buffer, aqueous buffer, pH 5 buffer (citrate, 50 mM)): 33 µg/mL
solubility at 24 h ([5]; 50 mM citrate buffer, aqueous buffer, pH 6 buffer (citrate, 50 mM)): 900 µg/mL
solubility at 24 h ([5]; 50 mM phosphate buffer, aqueous buffer, pH 1 buffer (phosphate, 50 mM), room temperature 24 h): < 1 µg/mL
solubility at 24 h ([5]; 50 mM phosphate buffer, aqueous buffer, pH 2 buffer (phosphate, 50 mM)): < 1 µg/mL
solubility at 24 h ([5]; 50 mM phosphate buffer, aqueous buffer, pH 7 buffer (phosphate, 50 mM)): 1700 µg/mL
solubility at 24 h ([5]; 50 mM phosphate buffer, aqueous buffer, pH 8 buffer (phosphate, 50 mM)): 1600 µg/mL
Solubility ([5]; Methanol): >50000 µg/mL
solubility at 24 h ([5]; acetonitrile, organic solvent or mixture): 12000 µg/mL
solubility at 24 h ([5]; iso-propanol, organic solvent or mixture, IPA): 700 µg/mL
solubility at 24 h ([5]; methanol, organic solvent or mixture): > 50000 µg/mL
solubility at 24 h ([5]; water): 14000 µg/mL
AUC(0-t) [6, 7]: 1840 ng·h/mL
AUC(0-t) [6, 8]: 1290 ng·h/mL
AUC(0-t) [6, 9]: 2350 ng·h/mL
AUC(0-t) [6, 10]: 1520 ng·h/mL
AUC(0-t) [6, 11]: 2180 ng·h/mL
AUC(0-t) [6, 12]: 1830 ng·h/mL
AUC(0-inf) [6, 7]: 1840 ng·h/mL
AUC(0-inf) [6, 8]: 1300 ng·h/mL
AUC(0-inf) [6, 9]: 2350 ng·h/mL
AUC(0-inf) [6, 10]: 1520 ng·h/mL
AUC(0-inf) [6, 11]: 2220 ng·h/mL
AUC(0-inf) [6, 12]: 1840 ng·h/mL
Cmax ([6]; Cmax, dog 301, single oral 10 mg/kg dose, plasma Compound 1): 1110 ng/mL
Cmax ([6]; Cmax, dog 302, single oral 10 mg/kg dose, plasma Compound 1): 1220 ng/mL
Cmax ([6]; Cmax, dog 303, single oral 10 mg/kg dose, plasma Compound 1): 1750 ng/mL
Cmax ([6]; Cmax, dog 304, single oral 10 mg/kg dose, plasma Compound 1): 2270 ng/mL
Cmax ([6]; Cmax, mean of dogs, single oral 10 mg/kg dose, plasma Compound 1): 1590 ng/mL
half-life ([6]; Mean harmonic T1/2, male beagle dogs, single oral 10 mg/kg capsule, fasted, Compound 1 in plasma): 2.49 ± 0.391 h
half-life ([6]; T1/2, Table 42 summary, harmonic mean, dogs, single oral 10 mg/kg, plasma Compound 1): 2.49 h
half-life ([6]; T1/2, dog 301, single oral 10 mg/kg dose, plasma Compound 1): 2.51 h
half-life ([6]; T1/2, dog 302, single oral 10 mg/kg dose, plasma Compound 1): 2.73 h
half-life ([6]; T1/2, dog 303, single oral 10 mg/kg dose, plasma Compound 1): 2.05 h
half-life ([6]; T1/2, dog 304, single oral 10 mg/kg dose, plasma Compound 1): 2.81 h
half-life ([6]; T1/2, harmonic mean of dogs, single oral 10 mg/kg dose, plasma Compound 1): 2.49 h
Tmax ([6]; Tmax, Table 42 summary, median, dogs, single oral 10 mg/kg, plasma Compound 1): 0.75 h
Tmax ([6]; Tmax, dog 301, single oral 10 mg/kg dose, plasma Compound 1): 0.75 h
Tmax ([6]; Tmax, dog 302, single oral 10 mg/kg dose, plasma Compound 1): 1 h
Tmax ([6]; Tmax, dog 303, single oral 10 mg/kg dose, plasma Compound 1): 0.75 h
Tmax ([6]; Tmax, dog 304, single oral 10 mg/kg dose, plasma Compound 1): 0.5 h
Tmax ([6]; Tmax, median of dogs (Mean column), single oral 10 mg/kg dose, plasma Compound 1): 0.75 h
Cmax ([6]; mean Cmax, male beagle dogs, single oral 10 mg/kg capsule, fasted, Compound 1 in plasma, mean±SD): 1590 ± 534 ng/mL
Tmax ([6]; median Tmax, male beagle dogs, single oral 10 mg/kg capsule, fasted, Compound 1 in plasma): 0.75 h

— US8614227B2, “Salt and solvates of a tetrahydroisoquinoline derivative” (Spinifex Pharmaceuticals Pty Ltd, priority 2010, dated 2013)
